Usually IC50 stands for the concentration needed to halve the response being measured.

Like-named read-outs stand apart in the source and are kept apart here.

In data set [1] the test system is MCF-7 (ER+) breast cancer cells. Briefly: Competitive cellular uptake with ^18F-TA-Glyco-EE as radioligand. To be noted: Homo sapiens, MCF7, 1 h, read-out: IC50 for inhibition of cellular uptake of ^18F-TA-Glyco-EE. In kind it is cell-based. The method, then:
Competitive uptake experiments were performed using ^18F-TA-Glyco-EE as a radioligand. One day prior to the experiment, MCF-7 cells were seeded in 96-well plates (50,000 cells/well). The cell medium was removed, and the respective estradiol derivative, as a competitor of the radioligand, was added in concentrations from 0 to 500 µM in 90 µL cell culture medium each. After ^18F-TA Glyco-EE (10 µL, approx. 1 MBq/well) was added, the incubation proceeded for 60 min at 37 °C. The plate was set on ice and washed with ice-cold PBS, followed by cell lysis and detachment with NaOH (0.1 M, 200 µL, 37 °C). The cells were transferred into counting tubes, and the radioactivity was measured using a γ-counter (Wallac Wizard, PerkinElmer, Waltham, MA, USA). One single experiment was performed in triplicate.

For data set [2] the following is noted: cited from earlier work.
The next data set concerns ER+ MCF-7 cells. Put plainly: Cellular uptake assay in ER+ cells. The format is cell-based, human. As to the method: One day prior to the experiment, MCF-7 and MDA-MB-231 cells were seeded in 24-well plates (350,000 cells/well). The cells were washed once with cell medium. The cells were incubated with the respective radiotracer in cell medium (510 µL) for 10, 20, 30, 60, 90, 120 min at 37 °C in the absence and presence of estradiol (E2, final concentration of 72 µM). After incubation, the plates were set on ice and washed with ice-cold PBS twice, following cell lysis and detachment with NaOH (0.1 M, 750 µL, 37 °C). The cells were transferred to counting tubes, and the radioactivity was measured using a γ-counter (Wallac Wizard, PerkinElmer, Waltham, MA, USA). The protein concentration of each well was determined in duplicate using Bradford reagent (Bio-Rad Laboratories GmbH, Feldkirchen, Germany). The cellular uptake assay was performed in 2–4 independent experiments, each performed in quadruplicate for each time point.

A short description of data set [3]: Plasma protein binding (MicroSpin G-50 columns). To be noted: human plasma, 10 min, 37 °C. In kind it is in vitro ADME. As to the method:
MicroSPin G-50 columns (Cytiva, Merck KGaA, Darmstadt, Germany) were preconditioned according to the manufacturer’s protocol and the experiment was performed as follows. In brief, an aliquot of the tracer (1 µL, approx. 250 kBq) was added to NaCl (0.9%, 200 µL, negative control) or human plasma (200 µL) and incubated for 10 min at 37 °C. A sample from the plasma or negative control (40 µL) was carefully added to the resin, and the column was placed in an Eppendorf tube. After centrifugation (2 min, 2000× g), the eluate and the resin were collected separately. Both were measured for radioactivity using a γ-counter (Wallac Wizard, PerkinElmer, Waltham, MA, USA), and the radioactivity eluted from the resin was calculated as a percentage of the total amount of radioactivity. The determination of plasma protein binding was performed twice in duplicate.

Data set [4] is described as follows: Determination of logD7.4 (n-octanol/PBS). In kind it is physicochemical. To be noted: n-octanol/PBS pH 7.4; mean ± SD, three independent experiments. As to the method: For the determination of the octanol–water coefficient, an aliquot of the radiotracer was added to PBS (500 µL, pH 7.4) and n-octanol (500 µL) in an Eppendorf tube. The mixture was vortexed and subsequently centrifuged, each for 1 min. Three samples (each 100 µL) were taken from both the PBS and the n-octanol layer and measured using a γ-counter (Wallac Wizard, PerkinElmer, Waltham, MA, USA). The logD7.4 was expressed as log(cpmoctanol/cpmPBS) and reported as mean ± SD. The determination of logD7.4 was performed in three independent experiments, each performed in triplicate.

Data set [5] is described as follows: Stability in human serum and plasma in vitro (radio-HPLC). The format is in vitro ADME. To be noted: 37 °C; for Stability in human serum and plasma (in words): over 120 min, radio-HPLC; for Stability in Human Serum or Plasma: over 2 h, same for serum and plasma. As to the method:
An aliquot of the formulated tracer solution (40 µL containing approx. 10 MBq in 0.9% NaCl) was incubated with 200 µL of human plasma (Hölzel Diagnostika Handels GmbH, from CosmoBio USA, Carlsbad, CA, USA) or human serum (Biochrom GmbH, Merck KGaA, Darmstadt, Germany), respectively, at 37 °C. After various time points (5–120 min), aliquots (30 µL) were taken and quenched in methanol or 10% TFA (30 µL). The samples were centrifuged for 3 min, and subsequently the supernatants were analyzed by radio-HPLC (Chromolith RP-18e, 100 × 4.6 mm, 10–100% acetonitrile (with 0.1% TFA) in water (with 0.1% TFA) over 5 min, 4 mL/min).

For another data set, the system named is MCF-7 and T47D tumors. To be noted: cited from earlier work.
Data set [6] concerns MCF-7 tumor-bearing nude mice. Further details: method as in PMID 29466767. Particulars: 60 min p.i., cited from earlier work.
Data set [7] is described as follows: Hydrolysis of the Si-^18F bond observed on formulation. To be noted: slightly acidic conditions (HBSS pH 6.4). In kind it is physicochemical. The method, then:
Aiming at a more lipophilic derivatization of EE for comparison to the above-described hydrophilic derivatization, the well-known isotopic ^19F-^18F exchange reaction according to Schirrmacher et al. was applied to the radiosynthesis of ^18F-SiFA-EE, starting from ^19F-SiFA-EE. After cartridge purification and reformulation in HBSS (pH 6.4), ^18F-SiFA-EE was obtained in an AY of 44% (referred to [^18F]fluoride) after a total synthesis time of 27 min, with an Am of up to 28 GBq/µmol. It should be noted here that the obtained Am of ^18F-SiFA-EE was strongly dependent on the starting activity.

For the compound `CC(=O)OC1C(CF)OC(n2cc(C3(O)CCC4C5CCc6cc(O)ccc6C5CCC43C)nn2)C(OC(C)=O)C1OC(C)=O` (stereo not shown) [TA-Glyco-EE], the IC50 in data set [1] turned out to be 194 µM.
As for `C#C[C@]1(O)CC[C@H]2[C@@H]3CCc4cc(O)ccc4[C@H]3CC[C@@]21C` [EE, 17α-ethinylestradiol], the “calculated logKow” value in data set [2] is on record as 3.7.
Take `CC12CCC3c4ccc(O)cc4CCC3C1CCC2(O)c1cn(CCOCCOCCOCC[18F])nn1` (stereo not shown) [^18F-PEG-EE]: the “Cellular uptake relative to ^18F-Glyco-EE” value in the data set on ER+ MCF-7 cells (ER+ MCF-7 cells) is on record as “four times higher”. Also, in the data set on ER+ MCF-7 cells (after 60 min, 37 °C, absence of E2), the “Cellular uptake in MCF-7 cells” value came to 27 %/mg. The “Plasma Protein Binding” value in data set [3] was found to be 71 ± 4%. Moreover, the logD7.4 in [4] worked out at 2.2 ± 0.1. For the same compound, in [5], the “Stability in human serum and plasma (in words)” value was “stable in both plasma and serum over 120 min”; the “Stability in Human Serum or Plasma” value was above 99% over 2 h ^2.
Regarding `C[C@]12CC[C@@H]3c4ccc(O)cc4CC[C@H]3[C@@H]1CC[C@@]2(O)c1cn(CCOCCOCCOCCF)nn1` [PEG-EE], the IC50 in [1] was determined as 1270 µM.
For the compound `CC12CCC3c4ccc(O)cc4CCC3C1CCC2(O)c1cn(C2OC(C[18F])C(O)C(O)C2O)nn1` (stereo not shown) [^18F-Glyco-EE], in the data set with ER+ MCF-7 cells (after 90 min, 37 °C, absence of E2), the “Total cellular uptake in MCF-7 cells” value worked out at 7 %/mg. This compound returned a logD7.4 in data set [4] of 1.7 ± 0.1. In data set [5], the “Stability in human serum and plasma (in words)” value is “stable in both plasma and serum over 120 min”; the “Stability in Human Serum or Plasma” value is above 99% over 2 h ^2.
In the case of `CC12CCC3c4ccc(O)cc4CCC3C1CC([18F])C2O` (stereo not drawn) [FES, 16α-[^18F]fluoroestradiol], the “Uptake in MCF-7 and T47D tumors” value in the data set on MCF-7 and T47D tumors is recorded as below 0.4 %ID/g. Moreover, the logD7.4 in [2] is reported as 2.5.
As to `CC12CCC3c4ccc(O)cc4CCC3C1CCC2(O)c1cn(CCOCCOCC[18F])nn1` (stereo not shown) [^18F-FETE], the Tumor uptake in data set [6] (MCF-7 tumor-bearing nude mice) is 4 %ID/g. In addition, the “Tumor uptake after fulvestrant pretreatment” value in data set [6] (MCF-7 xenografts) is given as 1.5 %ID/g.
With `CC12CCC3c4ccc(O)cc4CCC3C1CCC2(O)c1cn(Cc2ccc([Si]([18F])(C(C)(C)C)C(C)(C)C)cc2)nn1` (stereo not shown) [^18F-SiFA-EE], the “Hydrolytic stability of the Si-^18F bond” value in [7] is on record as “highly amenable to hydrolysis of the Si-^18F bond”.
Turning to `C[C@]12CC[C@@H]3c4ccc(O)cc4CC[C@H]3[C@@H]1CC[C@@H]2O` [E2, 17β-estradiol, reference compound], the IC50 in [1] (MCF-7 cells, 60 min, 37 °C, single experiment in triplicate) was determined as 56 µM.

(Values after article PMC11311842, “Radiosynthesis and Preclinical Evaluation of ^18F-Labeled Estradiol Derivatives with Different Lipophilicity for PET Imaging of Breast Cancer” (Cancers, 2024).)
